Data: PMC5501099 (Malaria Journal, 2017)

Test system: Plasmodium vivax
Test: Effect of ivermectin on Plasmodium vivax sporogony in Anopheles dirus
Type: in vivo
Conditions: An. dirus; for P. vivax oocyst prevalence reduced by: dissected day 7
Procedure: Mosquitoes reared in Bangkok were transported to a field laboratory at the Mae Sot Malaria Medical Clinic in Mae Sot, Tak Province. Plasmodium vivax-infected blood was collected from malaria-infected patients reporting to malaria clinics operated by the Thailand Ministry of Public Health in Tak Province (protocol WRAIR#1949A). Patient plasma was removed and replaced by centrifuging blood samples at 3000 rpm for 5 min, plasma removed and blood washed with RPMI twice, and malaria-naïve AB+ serum was added at a 50:50 ratio [30]. One millilitre of blood was fed to each group of 100 mosquitoes in 0.5-l cardboard containers and unfed mosquitoes were removed. Mosquitoes were maintained on 10% sucrose ad libitum at the Mae Sot field insectary (25 ± 1 °C and 70 ± 10% relative humidity, light 12 h:12 h dark photoperiod). Once infected with P. vivax, blood-fed mosquitoes were securely transported back to Bangkok and maintained in a separate insectary (25 ± 1 °C and 70 ± 10% relative humidity, light 12 h:12 h dark photoperiod).
Unfed mosquitoes were removed from the feeding containers after each blood meal. Mosquitoes from the DPI 0 and DPI −3 feeding schedules were dissected 7 days post parasite ingestion to enumerate oocysts. Midguts were dissected with minuten pins into saline on a microscope slide and stained with 0.4% mercurochrome and viewed at 40× magnification with a compound microscope to determine oocyst prevalence and intensity. Approximately 25 mosquitoes were dissected from each control and treatment group at each dissection time point. Dissectors were blinded to treatment groups. Due to lack of initial mosquito blood feeding and mosquitoes lost to experimental mortality and oocyst dissections at day 7 post parasite feeding, not enough mosquitoes remained at day 14 post parasite feeding to determine sporozoite prevalence for the DPI −3 and 0 experiments. Mosquitoes from the DPI 6 and 9 experiments were dissected 14 days post parasite ingestion to determine sporozoite prevalence. Salivary glands were dissected with minuten pins into saline on a microscope slide and viewed at 40× magnification to determine sporozoite prevalence.
A non-linear mixed effects model with probit analysis was used to calculate LC50, LC25 and LC5 values with Statistical Analysis Software (SAS Institute Inc, Cary, NC, USA) as described previously. Hazard ratios for mosquito mortality at day 7 post blood meal were calculated using Poisson regression analysis with STATA version 12.1 (StataCorp LLC, College Station, TX, USA). Oocyst and sporozoite prevalence (i.e. proportion of infected mosquitoes) was compared by Fishers Exact test. Oocyst intensity (i.e. number of oocysts per infected mosquito) was compared by the Mann–Whitney U test. To determine if P. vivax infection altered mosquito survivorship post-ivermectin ingestion survival data were analysed by the Mantel–Cox method. The Fishers Exact, Mann–Whitney U, and survival analysis data were analysed with Prism 7 (GraphPad Software Inc, San Diego, CA, USA).

[1] = ivermectin LC5 at DPI −3, not significant

ivermectin
P. vivax oocyst prevalence reduced by (ivermectin LC5 (22.1 ng/ml) co-ingested at DPI 0): 33.6%
P. vivax mean oocyst intensity reduced by (ivermectin LC5 at DPI 0): 24.7%
P. vivax oocyst intensity increased by [1]: 24.2%
P. vivax oocyst prevalence decreased by [1]: 3.9%
P. vivax oocyst prevalence reduced by (ivermectin LC25 (38.1 ng/ml) co-ingested at DPI 0): 44.7%
P. vivax mean oocyst intensity reduced by (ivermectin LC25 at DPI 0): 51.2%
P. vivax sporozoite prevalence decreased by (ivermectin LC25 at DPI 6, dissected day 14, not significant): 4.5%
P. vivax sporozoite prevalence increased by (ivermectin LC25 at DPI 9, dissected day 14, not significant): 4.4%
